Here are results for six compounds from PMC6485449 (Clinical cancer research : an official journal of the …, 2013).

SMILES strings stand for the structures. Where “and” joins values, the source holds several entries; their conditions need not be identical. Equal values may be shown once. Entries after “also recorded” stand apart in the source; their conditions may differ. Read-outs that look alike come from different tables or passages of the source.

One series relates to MRC-5 (Normal). The series is described as follows: Single-agent 2-D cytotoxicity assay, MRC-5. It counts as cell-based, human.
The next series relates to MDA-MB-231. The series is described as follows: Single-agent 2-D cytotoxicity assay, MDA-MB-231. It is filed as cell-based. To be noted: Homo sapiens, MDA-MB-231, read-out: SF50 MDA-MB-231.
The target of another series is recombinant human PARP1 (Homo sapiens, UniProt P09874). To be noted: for off-rate / on-rate: immobilized rhPARP1, Biacore T200. (In SPR one partner is held on a chip, and binding of the other changes the refractive index at the surface.)
For series [1], the system named is Capan-1 (BRCA2 deficient). Put plainly: Single-agent cytotoxicity assay, Capan-1. It counts as cell-based, human.
The test system of series [2] is MX-1 tumor xenografts. The series is described as follows: Cisplatin combination study, MX-1 xenograft. It counts as in vivo, mice.
A further series has as its system LoVo cells. Put plainly: Temozolomide potentiation. It is filed as cell-based, human.
The subject of a further series is PC-3 (PTEN deficient). The series is described as follows: Single-agent 2-D cytotoxicity assay, PC-3. It counts as cell-based. To be noted: Homo sapiens, read-out: SF50 PC-3 (PTEN deficient).
A further series concerns MX-1 tumor PAR levels. Put plainly: PAR assay in vivo. The arrangement: species or system mice.
The nature of series [3]: Combination with platinum drugs in vitro. It counts as cell-based. The conditions noted are these: data not shown.
Series [4] concerns the target potassium ion channel hERG (Homo sapiens, UniProt Q12809). Put plainly: hERG in vitro assay. To be noted: concentrations as high as 100 μM.
The test system of a further series is LNCap xenograft. The series is described as follows: LNCap xenograft, single agent. It counts as in vivo, mice. To be noted: 0.33 mg/kg oral QDx28, vs vehicle-treated control.
Series [5] in a line: Liver microsome stability, dog. It is filed as in vitro ADME. The conditions noted are these: dogs, two hours, 1 μM. (Liver microsomes are vesicles of endoplasmic reticulum, rich in cytochrome P450 enzymes.)
The next series addresses CYP2C19 (Homo sapiens, UniProt P33261). Put plainly: CYP450 inhibition, CYP2C19. It counts as in vitro ADME. To be noted: concentrations up to 10 μM; data not shown.
In series [6] the target is Poly (ADP-ribose) Glycohydrolase (PARG) (Homo sapiens, UniProt Q86W56). The series is described as follows: PARG activity assay. It counts as biochemical. To be noted: concentrations up to 1 μM; data not shown.
Another series relates to MX-1 cells. Put plainly: SN-38 chemo-sensitization assay. It is filed as cell-based, human. The conditions noted are these: MX-1 cells in vitro, 5 days.
The target in the next series is CYP2C9 (Homo sapiens, UniProt P11712). The series is described as follows: CYP450 inhibition, CYP2C9. It counts as in vitro ADME. The conditions noted are these: concentrations up to 10 μM; data not shown.
Series [7] in a line: Liver microsome stability, human. To be noted: humans, two hours, 1 μM. It counts as in vitro ADME.
Another series addresses T1, CYP1A2 (Homo sapiens, UniProt P05177).
T1 sequence (P05177 1-516): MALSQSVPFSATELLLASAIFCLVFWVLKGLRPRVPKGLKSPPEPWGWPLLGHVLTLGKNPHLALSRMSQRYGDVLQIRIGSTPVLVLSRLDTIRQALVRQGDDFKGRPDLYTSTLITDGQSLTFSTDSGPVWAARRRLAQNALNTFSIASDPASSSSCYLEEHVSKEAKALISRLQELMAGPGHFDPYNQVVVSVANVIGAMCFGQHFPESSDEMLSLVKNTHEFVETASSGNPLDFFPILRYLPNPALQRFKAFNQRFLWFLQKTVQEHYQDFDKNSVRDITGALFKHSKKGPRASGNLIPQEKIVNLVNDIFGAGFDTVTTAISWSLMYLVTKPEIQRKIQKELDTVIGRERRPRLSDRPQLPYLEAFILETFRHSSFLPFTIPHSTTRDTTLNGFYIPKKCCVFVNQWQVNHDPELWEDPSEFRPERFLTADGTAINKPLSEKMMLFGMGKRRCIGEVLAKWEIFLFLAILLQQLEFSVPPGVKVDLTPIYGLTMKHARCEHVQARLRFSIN
Put plainly: CYP450 inhibition, CYP1A2. It counts as in vitro ADME. The conditions noted are these: concentrations up to 10 μM; data not shown.

The test system of series [8] is PAR synthesis in LoVo cells. Put plainly: Intracellular PAR formation assay. It is filed as cell-based. The conditions noted are these: Homo sapiens.
The subject of series [9] is MX-1 tumor xenografts. The series is described as follows: MX-1 xenograft, single agent. It is filed as in vivo, mice.
Series [10] can be described thus: Liver microsome stability, rat. To be noted: rats, two hours, 1 μM. It counts as in vitro ADME.
A further series addresses CYP3A4 (Homo sapiens, UniProt P08684). The series is described as follows: CYP450 inhibition, CYP3A4. It is filed as in vitro ADME. To be noted: concentrations up to 10 μM; data not shown.
For the next series, the target named is CYP2D6 (Homo sapiens, UniProt P10635). Put plainly: CYP450 inhibition, CYP2D6. It counts as in vitro ADME. To be noted: concentrations up to 10 μM; data not shown.
In series [11] the test system is MX-1 tumor xenografts. The series is described as follows: Carboplatin combination study, MX-1 xenograft. It is filed as in vivo, mice.
For the next series, the system named is MDA-MB-468 xenograft. Put plainly: MDA-MB-468 xenograft, single agent. It is filed as in vivo, mice.
Where [12] appears, read: Homo sapiens, MRC5, read-out: SF50 MRC-5 (Normal).
Setting [13] is: Homo sapiens, CAPAN-1, read-out: Capan-1 Cytotoxicity IC50.
The mark [14] stands for this setting: Homo sapiens, CAPAN-1, read-out: SF50 Capan-1 (BRCA2 deficient).
Setting [15] is: 2 hours after single oral dose (BMN 673 1 mg/kg; olaparib 100 mg/kg).
Setting [16] is: 8 hours after single oral dose (BMN 673 1 mg/kg; olaparib 100 mg/kg).
[17] abbreviates: 24 hours after single oral dose (BMN 673 1 mg/kg; olaparib 100 mg/kg).

Chain of recombinant human PARP1 (P09874 662-1011): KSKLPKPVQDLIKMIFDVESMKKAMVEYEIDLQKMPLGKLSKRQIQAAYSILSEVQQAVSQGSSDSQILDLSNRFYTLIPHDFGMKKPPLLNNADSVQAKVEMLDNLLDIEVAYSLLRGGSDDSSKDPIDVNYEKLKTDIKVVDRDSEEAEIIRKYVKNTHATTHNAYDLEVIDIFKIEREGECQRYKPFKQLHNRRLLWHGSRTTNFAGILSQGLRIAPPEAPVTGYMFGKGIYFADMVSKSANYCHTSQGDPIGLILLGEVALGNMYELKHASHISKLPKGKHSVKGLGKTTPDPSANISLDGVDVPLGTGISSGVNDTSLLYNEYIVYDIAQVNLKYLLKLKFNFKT
Chain of Poly (ADP-ribose) Glycohydrolase (PARG) (Q86W56 whole entry, species assumed): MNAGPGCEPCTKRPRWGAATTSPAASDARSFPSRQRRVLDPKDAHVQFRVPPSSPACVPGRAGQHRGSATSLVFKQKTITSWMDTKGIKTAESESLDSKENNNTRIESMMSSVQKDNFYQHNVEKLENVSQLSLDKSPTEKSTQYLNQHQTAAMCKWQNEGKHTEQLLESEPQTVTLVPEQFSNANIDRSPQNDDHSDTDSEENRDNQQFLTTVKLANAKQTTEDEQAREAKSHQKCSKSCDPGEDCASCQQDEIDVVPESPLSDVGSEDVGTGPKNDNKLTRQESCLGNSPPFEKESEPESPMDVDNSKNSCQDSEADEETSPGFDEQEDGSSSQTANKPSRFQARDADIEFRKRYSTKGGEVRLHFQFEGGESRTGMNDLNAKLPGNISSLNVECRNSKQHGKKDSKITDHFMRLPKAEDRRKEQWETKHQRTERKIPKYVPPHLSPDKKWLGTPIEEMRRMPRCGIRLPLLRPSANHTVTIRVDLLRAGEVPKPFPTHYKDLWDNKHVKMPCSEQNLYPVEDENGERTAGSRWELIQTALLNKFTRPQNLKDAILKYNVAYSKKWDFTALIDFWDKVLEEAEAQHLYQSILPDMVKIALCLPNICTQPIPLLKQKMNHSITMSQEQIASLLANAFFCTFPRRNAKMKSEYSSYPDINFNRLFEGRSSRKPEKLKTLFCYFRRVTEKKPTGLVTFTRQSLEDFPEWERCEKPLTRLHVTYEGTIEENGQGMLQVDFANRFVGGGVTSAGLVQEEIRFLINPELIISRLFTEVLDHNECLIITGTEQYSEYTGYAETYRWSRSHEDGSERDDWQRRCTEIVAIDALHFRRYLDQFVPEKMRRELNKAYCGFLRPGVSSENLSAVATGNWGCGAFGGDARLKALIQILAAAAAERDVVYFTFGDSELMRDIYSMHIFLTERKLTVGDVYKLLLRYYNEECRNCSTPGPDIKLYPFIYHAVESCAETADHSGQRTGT
Chain of potassium ion channel hERG (Q12809 whole entry): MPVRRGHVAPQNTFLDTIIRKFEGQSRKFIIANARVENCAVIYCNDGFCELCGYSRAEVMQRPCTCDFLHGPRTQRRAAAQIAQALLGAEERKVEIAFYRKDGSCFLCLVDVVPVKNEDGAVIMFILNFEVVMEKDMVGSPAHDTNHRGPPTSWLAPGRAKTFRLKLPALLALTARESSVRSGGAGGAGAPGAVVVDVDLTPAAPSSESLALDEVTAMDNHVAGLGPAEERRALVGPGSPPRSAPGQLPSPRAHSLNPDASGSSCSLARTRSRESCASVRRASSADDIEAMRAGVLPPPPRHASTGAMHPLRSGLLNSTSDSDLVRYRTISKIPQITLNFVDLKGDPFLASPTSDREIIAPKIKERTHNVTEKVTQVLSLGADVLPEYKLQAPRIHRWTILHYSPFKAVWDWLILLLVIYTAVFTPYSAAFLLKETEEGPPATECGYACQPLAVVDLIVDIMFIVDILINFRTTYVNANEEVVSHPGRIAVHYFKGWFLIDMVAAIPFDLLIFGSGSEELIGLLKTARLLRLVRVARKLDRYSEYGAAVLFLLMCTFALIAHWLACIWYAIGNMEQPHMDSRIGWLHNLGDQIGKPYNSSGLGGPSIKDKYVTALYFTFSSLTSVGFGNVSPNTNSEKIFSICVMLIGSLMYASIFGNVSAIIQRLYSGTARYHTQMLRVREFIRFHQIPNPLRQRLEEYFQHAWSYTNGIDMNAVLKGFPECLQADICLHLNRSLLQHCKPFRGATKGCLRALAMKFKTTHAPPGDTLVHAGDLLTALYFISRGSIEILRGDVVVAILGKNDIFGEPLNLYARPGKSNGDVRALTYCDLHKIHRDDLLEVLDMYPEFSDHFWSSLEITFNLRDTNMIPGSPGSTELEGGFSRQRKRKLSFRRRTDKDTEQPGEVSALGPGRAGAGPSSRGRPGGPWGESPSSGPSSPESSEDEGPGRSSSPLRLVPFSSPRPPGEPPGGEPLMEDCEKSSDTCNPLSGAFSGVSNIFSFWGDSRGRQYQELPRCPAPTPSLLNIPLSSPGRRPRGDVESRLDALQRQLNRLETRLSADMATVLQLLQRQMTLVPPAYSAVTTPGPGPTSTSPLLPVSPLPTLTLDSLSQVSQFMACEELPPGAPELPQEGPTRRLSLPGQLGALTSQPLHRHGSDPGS
Chain of CYP2C9 (P11712 whole entry): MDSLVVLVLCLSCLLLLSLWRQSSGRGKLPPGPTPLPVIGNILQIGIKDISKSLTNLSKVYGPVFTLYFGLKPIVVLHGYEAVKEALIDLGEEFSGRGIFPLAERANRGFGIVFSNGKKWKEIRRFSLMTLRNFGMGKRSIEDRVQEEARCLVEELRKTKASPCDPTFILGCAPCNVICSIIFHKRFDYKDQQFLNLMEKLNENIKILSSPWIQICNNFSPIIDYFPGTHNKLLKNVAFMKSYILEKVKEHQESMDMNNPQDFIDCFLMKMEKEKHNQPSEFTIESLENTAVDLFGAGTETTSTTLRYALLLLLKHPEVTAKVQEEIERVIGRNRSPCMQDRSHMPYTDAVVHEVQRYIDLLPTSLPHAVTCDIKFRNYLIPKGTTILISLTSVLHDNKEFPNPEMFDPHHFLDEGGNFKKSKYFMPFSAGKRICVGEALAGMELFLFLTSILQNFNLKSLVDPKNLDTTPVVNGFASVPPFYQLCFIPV
Chain of CYP2D6 (P10635 whole entry): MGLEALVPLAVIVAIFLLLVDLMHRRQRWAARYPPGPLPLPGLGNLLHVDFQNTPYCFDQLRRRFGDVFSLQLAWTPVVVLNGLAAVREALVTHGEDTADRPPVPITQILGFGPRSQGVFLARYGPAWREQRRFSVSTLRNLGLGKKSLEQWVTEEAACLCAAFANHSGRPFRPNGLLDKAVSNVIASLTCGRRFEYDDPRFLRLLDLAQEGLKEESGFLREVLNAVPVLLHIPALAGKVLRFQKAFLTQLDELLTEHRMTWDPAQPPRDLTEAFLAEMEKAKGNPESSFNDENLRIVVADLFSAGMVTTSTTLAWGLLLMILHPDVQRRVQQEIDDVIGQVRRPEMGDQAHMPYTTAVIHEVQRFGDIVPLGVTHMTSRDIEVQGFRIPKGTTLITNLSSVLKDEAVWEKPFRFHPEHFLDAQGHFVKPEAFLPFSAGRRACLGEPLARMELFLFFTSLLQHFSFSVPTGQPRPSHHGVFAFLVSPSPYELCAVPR
Chain of CYP2C19 (P33261 whole entry): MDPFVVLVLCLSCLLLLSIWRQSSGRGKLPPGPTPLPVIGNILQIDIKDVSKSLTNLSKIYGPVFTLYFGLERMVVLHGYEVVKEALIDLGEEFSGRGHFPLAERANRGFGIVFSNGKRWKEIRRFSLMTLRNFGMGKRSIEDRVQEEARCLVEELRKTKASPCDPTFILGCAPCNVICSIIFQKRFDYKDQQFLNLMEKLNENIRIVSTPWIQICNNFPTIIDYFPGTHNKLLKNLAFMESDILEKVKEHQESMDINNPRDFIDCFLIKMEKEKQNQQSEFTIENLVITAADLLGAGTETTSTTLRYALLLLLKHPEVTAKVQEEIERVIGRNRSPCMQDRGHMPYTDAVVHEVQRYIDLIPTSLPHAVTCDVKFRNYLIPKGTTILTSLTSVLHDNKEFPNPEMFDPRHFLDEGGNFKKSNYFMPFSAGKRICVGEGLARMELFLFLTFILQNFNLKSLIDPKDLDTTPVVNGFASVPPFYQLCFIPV
Chain of CYP3A4 (P08684 whole entry): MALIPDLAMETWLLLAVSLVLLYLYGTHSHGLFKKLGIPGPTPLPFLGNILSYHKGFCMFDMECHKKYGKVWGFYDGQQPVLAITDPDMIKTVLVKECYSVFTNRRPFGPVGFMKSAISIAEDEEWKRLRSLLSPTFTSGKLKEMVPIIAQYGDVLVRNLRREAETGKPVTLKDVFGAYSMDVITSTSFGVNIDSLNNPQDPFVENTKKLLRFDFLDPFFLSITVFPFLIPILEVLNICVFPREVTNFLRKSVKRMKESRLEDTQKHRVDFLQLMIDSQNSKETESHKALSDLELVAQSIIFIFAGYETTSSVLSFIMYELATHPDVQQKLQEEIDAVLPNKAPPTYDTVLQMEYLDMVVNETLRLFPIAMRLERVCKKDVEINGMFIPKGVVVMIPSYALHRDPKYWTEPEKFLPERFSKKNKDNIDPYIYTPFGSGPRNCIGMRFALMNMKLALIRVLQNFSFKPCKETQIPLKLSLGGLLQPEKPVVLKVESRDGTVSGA

Take `CNCc1ccc(-c2[nH]c3cc(F)cc4c3c2CCNC4=O)cc1` [Rucaparib, rucaparib]: the IC50 is 8.53 µM in the series on MRC-5 (Normal) (setting [12]) and 5.53 µM in the series with MDA-MB-231.

Turning to `C[C@]1(c2nc3c(C(N)=O)cccc3[nH]2)CCCN1` [Veliparib, veliparib], the off-rate at recombinant human PARP1 came to 0.0041 s⁻¹. In addition, on recombinant human PARP1, the on-rate is 1.74e+06 M⁻¹ s⁻¹. Also, the IC50 in [1] (read-out: Capan-1 Cytotoxicity IC50, single agent, 50% cell survival reduction) is over 10 µM; in series [1] (read-out: SF50 Capan-1 (BRCA2 deficient), 2-D cytotoxicity assay), over 10 µM; in the series on MRC-5 (Normal) (read-out: SF50 MRC-5 (Normal), 2-D cytotoxicity assay) it was over 10 µM.

Take `N.N.[Cl][Pt][Cl]` [cisplatin, reference compound]: the “maximum average body weight loss” value in the series on MX-1 tumor xenografts [2] (cisplatin alone, 6 mg/kg IP) turned out to be 3%.

In general, inhibition refers to the share of the control response that was lost under treatment. With `Cn1nnc2c(C(N)=O)ncn2c1=O` [TMZ, temozolomide, reference compound], in the series on LoVo cells (Homo sapiens, 120 h, read-out: cell growth inhibition), the inhibition at 200 µM was about 15%.

As to `O=C(c1cc(Cc2n[nH]c(=O)c3ccccc23)ccc1F)N1CCN(C(=O)C2CC2)CC1` [Olaparib, olaparib], the IC50 came to 0.259 µM in series [1] (setting [13]); 0.259 µM in series [1] (setting [14]); 0.787 µM in the series with PC-3 (PTEN deficient); 5.83 µM in the series on MRC-5 (Normal) (setting [12]); 6.41 µM in the series with MDA-MB-231. Further, the cisplatin sensitizing effect result in the series with MX-1 tumor xenografts [2] (olaparib 100 mg/kg oral once-a-day day 1 to 8 plus cisplatin 6 mg/kg) was “equivalent to the lowest dose of BMN 673”. In the series on MX-1 tumor xenografts [2] (olaparib 100 mg/kg plus cisplatin 6 mg/kg IP), the “maximum body weight loss” value is 3%. Also, the “intratumoral PAR level” value is listed as “significant decrease” in the series on MX-1 tumor PAR levels (setting [15]), “partial recovery” in the series on MX-1 tumor PAR levels (setting [16]) and “complete recovery” in the series with MX-1 tumor PAR levels (setting [17]).

For orientation: EC50 means the concentration that produces a half-maximal response. As for `Cn1ncnc1[C@H]1c2n[nH]c(=O)c3cc(F)cc(c23)N[C@@H]1c1ccc(F)cc1` [BMN 673, (8S,9R)-5-fluoro-8-(4-fluorophenyl)-9-(1-methyl-1H-1,2,4-triazol-5-yl)-8,9-dihydro-2H-pyrido[4,3,2-de]phthalazin-3(7H)-one], the off-rate on recombinant human PARP1 was found to be 0.000105 s⁻¹. The on-rate at recombinant human PARP1 came out at 368000 M⁻¹ s⁻¹. Also, at recombinant human PARP1 (vs veliparib), the “dissociation rate, times slower than that of veliparib” value is reported as about 40 times. The IC50 in series [1] (setting [13]) was determined as 0.005 µM; in series [1] (setting [14]) it was 0.005 µM; with PC-3 (PTEN deficient), 0.004 µM; in the series with MRC-5 (Normal) (setting [12]), 0.31 µM; in series [8] (read-out: intracellular PAR formation IC50) it was 0.0025 µM; with MDA-MB-231 it was 1.85 µM. Besides, in [3], the “effect of combining with platinum drugs in vitro” value is given as “clearly additive effect”. For the same compound, the hERG inhibition result in series [4] is given as “no significant inhibition”. The tumor growth delay with LNCap xenograft worked out at 22.8 days; with MDA-MB-468 xenograft (0.33 mg/kg oral QDx28, vs vehicle-treated control), 15.9 days. Moreover, the “remaining after incubation in liver microsomes” value in series [5], in [7] and in series [10] was “more than 90%” each time. On CYP2C19, the CYP2C19 inhibition result is on record as “did not inhibit”. Further, the “effect on PARG activity” value in [6] was “no effect”. Further, the “potentiation of the cytotoxic effect of SN38” value in the series on MX-1 cells was “potentiated”. At CYP2C9, the CYP2C9 inhibition result was “did not inhibit”. In addition, the “maximum average weight loss” value in the series on MX-1 tumor xenografts [2] (BMN 673 0.033 mg/kg plus cisplatin 6 mg/kg IP) stood at 3%; in the series on MX-1 tumor xenografts [2] (BMN 673 0.1 mg/kg plus cisplatin 6 mg/kg IP), 5%; in the series on MX-1 tumor xenografts [2] (BMN 673 0.33 mg/kg plus cisplatin 6 mg/kg IP), 6%; in the series with MX-1 tumor xenografts [2] (BMN 673 1 mg/kg plus cisplatin 6 mg/kg IP) it was 11%. Also, the animal deaths entry in the series with MX-1 tumor xenografts [2] (BMN 673 1 mg/kg plus cisplatin, Day 20) is on record as “One animal died”. The “growth of MX-1 tumor xenografts” value in the series on MX-1 tumor xenografts [2] (BMN 673 oral once daily days 1-8 plus cisplatin 6 mg/kg IP) is recorded as “significantly inhibited in a dose-dependent manner”. For the same compound, the CYP1A2 inhibition entry at CYP1A2 was “did not inhibit”. Also, the EC50 in [8] (read-out: Cellular PAR Synthesis EC50) came to 0.0025 µM. Moreover, the “effect on tumor growth” value in the series with MX-1 tumor xenografts [9] (0.1 mg/kg oral once daily, after extended treatment (>21 days)) is on record as “small effect on tumor growth”. Besides, the “tumor re-establishment after dosing ceased” value in the series with MX-1 tumor xenografts [9] (0.165 mg/kg/dose BID x 28, followed eight weeks after dosing ceased) is given as “none of the mice had tumor re-growth; also recorded: no re-establishment of tumor”. Besides, the “mice achieving complete response (CR)” value in the series on MX-1 tumor xenografts [9] (0.165 mg/kg/dose oral BID, 28 days) was “all 6 mice and 6/6”. Besides, the tolerability entry with MX-1 tumor xenografts [9] (0.33 mg/kg and 0.1 mg/kg, 28 consecutive once daily oral doses) was “well tolerated”; in the series on MX-1 tumor xenografts [11] (BMN 673 0.33 mg/kg plus carboplatin 35 mg/kg IP), “No animal lethality or significant body weight loss”. The “mice achieving complete response (CR, tumor impalpable)” value in the series on MX-1 tumor xenografts [9] (0.33 mg/kg oral once-a-day, 28 days) is reported as “four CRs out of six”. Moreover, the results for the “intratumoral PAR level” value with MX-1 tumor PAR levels (setting [15]), in the series on MX-1 tumor PAR levels (setting [16]) and in the series with MX-1 tumor PAR levels (setting [17]) were “drastically decreased”, “drastically decreased” and “Partial recovery”, respectively. Also, the CYP3A4 inhibition entry on CYP3A4 is “did not inhibit”. The CYP2D6 inhibition result at CYP2D6 was “did not inhibit”. Besides, in the series with LoVo cells (combined with 200 μM TMZ), the “potentiation of TMZ cytotoxicity” value is recorded as “significant potentiation”. Moreover, the “potentiation of carboplatin anti-tumor effect in vivo” value with MX-1 tumor xenografts [11] (BMN 673 0.33 mg/kg oral once-a-day 5 or 8 days plus carboplatin 35 mg/kg IP) was “significant potentiation”. For the same compound, the “effectiveness of 0.165 mg/kg/dose BIDx28 vs 0.33 mg/kg/dose QDx28” value with MDA-MB-468 xenograft (MDA-MB-468 xenograft) was “slightly more effective”.
